Source: the NIST ThermoML archive (doi:10.1021/je060179e)

Assay: xn = mol fraction of the nth substance listed
Conditions: for mass density: 101 kPa, Liquid

CCCCCCO [hexan-1-ol] + CCCCCCC
Conditions	mass density [kg/m3]	surface tension liquid-gas [mN/m]
288.15 K, x2 = 0.05	814.76	–
288.15 K, x2 = 0.0507	–	25.6
288.15 K, x2 = 0.0976	807.66	–
288.15 K, x2 = 0.1018	–	25.01
288.15 K, x2 = 0.2001	–	24.02
288.15 K, x2 = 0.3087	–	23.22
288.15 K, x2 = 0.3197	775.17	–
288.15 K, x2 = 0.3943	764.62	–
288.15 K, x2 = 0.3949	–	22.55
288.15 K, x2 = 0.5021	–	22.16
288.15 K, x2 = 0.5088	748.93	–
288.15 K, x2 = 0.6053	–	21.8
288.15 K, x2 = 0.6171	734.53	–
288.15 K, x2 = 0.7045	723.24	–
288.15 K, x2 = 0.7097	–	21.46
288.15 K, x2 = 0.8055	–	21.2
288.15 K, x2 = 0.808	710.42	–
288.15 K, x2 = 0.9066	–	21.05
288.15 K, x2 = 0.9072	698.54	–
288.15 K, x2 = 0.9517	–	20.94
293.15 K, x2 = 0.0494	–	25.01
293.15 K, x2 = 0.05	811.17	–
293.15 K, x2 = 0.0976	804.03	–
293.15 K, x2 = 0.1036	–	24.45
293.15 K, x2 = 0.201	–	23.47
293.15 K, x2 = 0.3037	–	22.65
293.15 K, x2 = 0.3197	771.33	–
293.15 K, x2 = 0.3943	760.72	–
293.15 K, x2 = 0.4422	–	21.75
293.15 K, x2 = 0.5056	–	21.54
293.15 K, x2 = 0.5088	744.95	–
293.15 K, x2 = 0.5979	–	21.26
293.15 K, x2 = 0.6171	730.47	–
293.15 K, x2 = 0.6999	–	20.8
293.15 K, x2 = 0.7045	719.14	–
293.15 K, x2 = 0.808	706.27	–
293.15 K, x2 = 0.8091	–	20.54
293.15 K, x2 = 0.9061	–	20.43
293.15 K, x2 = 0.9072	694.33	–
293.15 K, x2 = 0.951	–	20.29
298.15 K, x2 = 0.0497	–	24.61
298.15 K, x2 = 0.05	807.56	–
298.15 K, x2 = 0.0976	800.37	–
298.15 K, x2 = 0.0987	–	24.05
298.15 K, x2 = 0.2023	–	22.92
298.15 K, x2 = 0.3096	–	22.09
298.15 K, x2 = 0.3197	767.46	–
298.15 K, x2 = 0.3943	756.8	–
298.15 K, x2 = 0.4078	–	21.45
298.15 K, x2 = 0.5054	–	21.04
298.15 K, x2 = 0.5088	740.94	–
298.15 K, x2 = 0.6099	–	20.58
298.15 K, x2 = 0.6171	726.39	–
298.15 K, x2 = 0.7045	715.01	–
298.15 K, x2 = 0.7075	–	20.28
298.15 K, x2 = 0.808	702.07	–
298.15 K, x2 = 0.8127	–	20.04
298.15 K, x2 = 0.905	–	19.93
298.15 K, x2 = 0.9072	690.09	–
298.15 K, x2 = 0.9515	–	19.74
303.15 K, x2 = 0.0488	–	24.1
303.15 K, x2 = 0.05	803.92	–
303.15 K, x2 = 0.0976	796.68	–
303.15 K, x2 = 0.1027	–	23.55
303.15 K, x2 = 0.1865	–	22.62
303.15 K, x2 = 0.31	–	21.59
303.15 K, x2 = 0.3197	763.56	–
303.15 K, x2 = 0.3943	752.84	–
303.15 K, x2 = 0.4122	–	20.97
303.15 K, x2 = 0.5086	–	20.49
303.15 K, x2 = 0.5088	736.9	–
303.15 K, x2 = 0.6147	–	20
303.15 K, x2 = 0.6171	722.28	–
303.15 K, x2 = 0.7045	710.84	–
303.15 K, x2 = 0.7097	–	19.78
303.15 K, x2 = 0.808	697.85	–
303.15 K, x2 = 0.8089	–	19.54
303.15 K, x2 = 0.9068	–	19.26
303.15 K, x2 = 0.9072	685.82	–
303.15 K, x2 = 0.9519	–	19.13
308.15 K, x2 = 0.0428	–	23.64
308.15 K, x2 = 0.05	800.26	–
308.15 K, x2 = 0.0976	792.98	–
308.15 K, x2 = 0.1025	–	23.03
308.15 K, x2 = 0.1986	–	22
308.15 K, x2 = 0.3055	–	21.1
308.15 K, x2 = 0.3197	759.64	–
308.15 K, x2 = 0.3943	748.86	–
308.15 K, x2 = 0.403	–	20.52
308.15 K, x2 = 0.498	–	20.11
308.15 K, x2 = 0.5088	732.83	–
308.15 K, x2 = 0.6165	–	19.57
308.15 K, x2 = 0.6171	718.13	–
308.15 K, x2 = 0.7042	–	19.35
308.15 K, x2 = 0.7045	706.64	–
308.15 K, x2 = 0.808	693.59	–
308.15 K, x2 = 0.8118	–	19.06
308.15 K, x2 = 0.9054	–	18.89
308.15 K, x2 = 0.9072	681.51	–
308.15 K, x2 = 0.9503	–	18.77
